# Experimental data published in patent publication US9139658B2, “Medicament for treatment cancer” (SUMITOMO DAINIPPON PHARMA CO., LTD., priority 2000, dated 2015).
# Counter-ions that a name gives are not always drawn. Like-named read-outs stand apart in the source and are kept apart here.
# Legend:
# [1] = test system: Human breast cancer cell line BT-474; assay: Evaluation of combination effects in vitro (WST-1 proliferation, Combination Index by Pegram method); assay type: cell-based; conditions: for CI value (Combination Index) / D1 (concentration of test agent in combination required for fa): combination with Herceptin; for Df1 (concentration of test agent as single agent required for fa): fa 0.9, BT-474; for combination effect with Herceptin, overall evaluation by Combination Index: summary of Examples 1-3, BT-474
# Experimental: The effects of the combined use were evaluated by calculating a Combination Index (CI) following a method of Pegram et al. (M. Pegram et al., Oncogene, 18, 2241-2251 (1999)). Human breast cancer cell line BT-474 (a cell line in which HER2 is highly expressed) was obtained from ATCC (American Type Culture Collection). In a medium comprising equal amount of D-MEM (Dulbecco's Modified Eagle Medium) medium and F-12 (Nutrient Mixture F-12) medium which further contains 2.5 mM L-glutamine, 10% bovine fetal serum (FCS) and 2.5 μg/ml amphotericin B, human breast cancer cell line BT-474 was subcultured. The culture was carried out in an incubator with 5% CO2 at 37° C. This medium was also used in the following experiments. HerceptinTM was dissolved in a dissolution solution attached thereto to prepare a 21 mg/ml stock solution. Thereafter, the solution was used after 2 fold serial dilutions with the medium. […] Doxorubicin hydrochloride was obtained from Kyowa Hakko Kogyo Co., Ltd. A 2 mg/ml solution was prepared by adding 5 ml of sterile water to a 10 mg vial, and the solution was used. Human breast cancer cell line BT-474 on subculture were subjected to a trypsin treatment, suspended in the medium, and seeded on a 96-well plate. The seeding density was set to be 1×10^4 cells/0.1 ml/well. After seeding, cells were cultured overnight in an incubator with 5% CO2 at 37° C. (Day 0). […] The experiments were conducted with n=3 for the agent-treated group, and with n=6 for the non-treated (control) group. Until Day 4, culture was conducted in an incubator with 5% CO2 at 37° C. […] Thereafter, culture was conducted in an incubator with 5% CO2 at 37° C. for 2-4 hours. Absorbance of the culture was then measured with MICROPLATE READER Model 3550-UV (BioRad), and living cell number was measured. […] CI and inhibition rate of proliferation fa were calculated as described above.
# [2] = Cardiotoxicity test using monkey (combination with Herceptin); conditions: rhesus monkey, intravenous, amrubicin hydrochloride at two times the dosage of doxorubicin hydrochloride
# Experimental: The administration of amrubicin hydrochloride at a dosage of two times of doxorubicin hydrochloride is carried out on the basis of therapeutic dosages of both agents.
# Into vein of a rhesus monkey, is administered doxorubicin at a dose of 2.92 mg/kg (35 mg/m^2), 7-8 times with three weeks intervals.
# Accordingly, the agent-administered groups are set to be as follows:
# 1) agent non-administered group
# 2) doxorubicin hydrochloride 2-4 mg/kg, iv, 8q3W
# 4) amrubicin hydrochloride 4-8 mg/kg, iv, 8q3W
# On 140-150 days post initiation of the administration, the animal is dissected, and histopathological diagnosis of the heart is carried out. Judging from the comparison of impairment of the myocardial cells, cardiotoxicity is evaluated.
# topoisomerase II = conditions: at a concentration which leads to 50% inhibition of cell proliferation; cited from earlier work
# [3] = rabbit chronic experimental model, compared with doxorubicin; cited from earlier work
# [4] = metabolite obtained by reduction in vivo; cited from earlier work
# [5] = compared with amrubicin and amrubicinol; cited from earlier work
# [6] = rhesus monkey, iv 2.92 mg/kg (35 mg/m^2), 7-8 times with three weeks intervals, 140-150 days post initiation; cited from earlier work
# [7] = in vitro experiment, Pegram et al. 1999; cited from earlier work
# [8] = clinical use; cited from earlier work
# [9] = dosage ratio 40:1, fa 0.9, BT-474
# [10] = dosage ratio 2:1, fa 0.9, BT-474
# [11] = dosage ratio 4:1, fa 0.9, BT-474
# [12] = dosage ratio 8:1, fa 0.9, BT-474
# [13] = dosage ratio 2:1, fa 0.9, BT-474, CI<1 synergistic, CI=1 additive
SMILES,Df1 (concentration of test agent as single agent required for fa) [1],"combination effect with Herceptin, overall evaluation by Combination Index [1]",cardiotoxicity in combination with Herceptin [2],"CI value (Combination Index) [1, 10]","D1 (concentration of test agent in combination required for fa) [1, 10]","combination effect with Herceptin judged from CI value [1, 13]",stabilization of cleavable complex via topoisomerase II (topoisomerase II),also measured
"CC(=O)[C@]1(N)Cc2c(O)c3c(c(O)c2[C@@H](O[C@H]2C[C@H](O)[C@H](O)CO2)C1)C(=O)c1ccccc1C3=O [Amrubicin hydrochloride, (+)-(7S,9S)-9-acetyl-9-amino-7-[(2-deoxy-β-D-erythro-pentopyranosyl)oxy]-7,8,9,10-tetrahydro-6,11-dihydroxy-5,12-naphthacenedione]",7.542 µg/mL,marked synergistic effects,cardiotoxicity is not presented,–,–,–,–,"CI value (Combination Index) [1, 9]: 0.17; D1 (concentration of test agent in combination required for fa) [1, 9]: 1.267 µg/mL; combination effect with Herceptin judged from CI value [1, 9]: synergistic effect"
CC(O)[C@]1(N)Cc2c(O)c3c(c(O)c2[C@@H](O[C@H]2C[C@H](O)[C@H](O)CO2)C1)C(=O)c1ccccc1C3=O.Cl (stereo partly drawn) [Amrubicinol hydrochloride],0.671 µg/mL,marked synergistic effects,–,0.38,0.239 µg/mL,synergistic effect,–,"CI value (Combination Index) [1, 11]: 0.33; D1 (concentration of test agent in combination required for fa) [1, 11]: 0.212 µg/mL; CI value (Combination Index) [1, 12]: 0.42; D1 (concentration of test agent in combination required for fa) [1, 12]: 0.279 µg/mL; combination effect with Herceptin judged from CI value ([1]; dosage ratio in the range of 2:1-8:1, fa 0.9, BT-474): synergistic effect"
"COc1cccc2c1C(=O)c1c(O)c3c(c(O)c1C2=O)C[C@@](O)(C(=O)CO)C[C@@H]3O[C@H]1C[C@H](N)[C@H](O)[C@H](C)O1 [Doxorubicin hydrochloride, reference compound]",0.434 µg/mL,–,cardiotoxicity is strongly presented,0.92,0.373 µg/mL,additive effect,–,–
"CC(=O)[C@]1(N)Cc2c(O)c3c(c(O)c2[C@@H](O[C@H]2C[C@H](O)[C@H](O)CO2)C1)C(=O)c1ccccc1C3=O [amrubicin, (+)-(7S,9S)-9-acetyl-9-amino-7-[(2-deoxy-β-D-erythro-pentopyranosyl)oxy]-7,8,9,10-tetrahydro-6,11-dihydroxy-5,12-naphthacenedione]",–,–,–,–,–,–,sufficiently stabilize a cleavable complex,cardiotoxicity [3]: far less than that of doxorubicin
CC(O)[C@]1(N)Cc2c(O)c3c(c(O)c2[C@@H](O[C@H]2C[C@H](O)[C@H](O)CO2)C1)C(=O)c1ccccc1C3=O (stereo partly drawn) [amrubicinol],–,–,–,–,–,–,sufficiently stabilize a cleavable complex,anti-cancer activity of metabolite compared with amrubicin [4]: stronger anti-cancer activity
COc1cccc2c1C(=O)c1c(O)c3c(c(O)c1C2=O)C[C@@](O)(C(=O)CO)C[C@@H]3O[C@H]1C[C@H](N)[C@H](O)[C@H](C)O1 [doxorubicin],–,–,–,–,–,–,does not stabilize the cleavable complex,intercalation activity [5]: about ten times stronger than those of amrubicin and amrubicinol; histopathological observation of the heart [6]: vacuolation of myocardial cells; combination effect with Herceptin [7]: additive effects; cardiotoxicity in combination with Herceptin [8]: cardiotoxicity is developed at a high frequency
